# Assay results taken from patent US7939495B2, “Method for improving skin conditions” (Caregen Co., Ltd, priority 2005, dated 2011).
# Columns and labels:
# Balb C mice = experiment: hair-growth activity after DHT treatment; assay type: in vivo; conditions: observed on day 19 after hair removal; DHT 8 days, then 10 days treatment or none
# Text: The hairs of the back portions of Balb C mice were removed and a hair loss-inducing substance, dihydrotestosterone (DHT, TCI Inc.) was applied for 8 days to induce […] stage before the proliferation of kerationcytes.
# hyaluronic acid = hyaluronic acid level in HaCaT cells (Hyaluronic acid ELISA kit); assay type: cell-based, human; conditions: 1 μmole, FIG. 9
# Protocol: (§1) Furthermore, HaCaT cell line was treated with the acetyl-decapeptide of this invention (1 μg/ml) and the level of procollagen, one of indicators to show the improvement in skin wrinkle, was examined (FIG. 8). The level of procollagen was measured using Procollagen ELISA kit (Takara). For verifying effects on levels of laminin and hyaluronic acid, another indicator representing the improvement in skin wrinkle, HaCaT cell line was incubated with the acetyl-decapeptide of this invention (1 μmole) and levels of laminin and hyaluronic acid were measured using Laminin ELISA kit (CHEMICON, USA) and Hyaluronic acid ELISA kit (Echelon Biosciences Inc, USA), respectively (FIG. 9).
# 3T3 fibroblast = experiment: [3H]-thymidine incorporation in 3T3 fibroblast; assay type: cell-based; conditions: 3T3 cells, 2 ng/ml serially diluted two-fold, FIG. 4
# Protocol: The biological activities of the purified acetyl-decapepetide of Example 10 were evaluated using 3T3 fibroblast (The Korean Cell Line Bank) according to Rizzino et al method to measure [^3H]-thymidine incorporation (Rizzino, et al. Cancer Res., 48:4266 (1988)). 3T3 cells were cultured in 250 ml-flasks containing EMEM (Eagle's minimal essential media, Gibco, U.S.A.) supplemented with […] (fetal bovine serum). 3T3 cells cultured were treated with 0.25% trypsin solution to detach cells from the bottom of culture flasks and centrifuged to collect cell pellets. Cells were resuspended in EMEM not containing FBS, its aliquot, 2×10^4 cells/0.3 ml medium was added to each well of 24-well plates and cultured under 7% CO2 for 24 hr at 37° C. 2 ng/ml of the acetyl decapeptide of this invention was serially diluted by two-fold using EMEM containing 0.2 (w/v) % bovine serum albumin and 0.3 ml of the diluted peptide was added to each well, followed by additional culturing under 7% CO2 for 6 hr at 37° C. Afterwards, 0.5 μCi of [^3H]-thymidine (Amersham, TRK 686, 68 Ci/mmol) was added to each well and incubated overnight. […] The dried filters were added along with 2 ml of scintillation cocktail to scintillation vials and allowed to stand for 30 min at room temperature, after which radioactivity incorporated into cells was determined using a scintillation counter (Beckman, U.S.A).
# laminin = laminin level in HaCaT cells (Laminin ELISA kit); assay type: cell-based, human; conditions: 1 μmole, FIG. 9
# Protocol: as §1
# [1] = tested on: receptor of basic fibroblast growth factor; experiment: competitive binding assay with 125I-labeled bFGF on BHK cells; set-up: species or system hamster; conditions: FIG. 3
# Protocol: To examine the binding potency of the purified acetyl-decapepetide of Example 10 to the receptor of basic fibroblast growth factor, the competitive binding assay was carried out using baby hamster kidney cells (BHK, the Korean Cell Line Bank) and ^125I-labeled bFGF (Amersham) according to process proposed by Baird et al. (Baird, et al., Proc. Natl. Acad. Sci. USA, 85:2324-2328 (1988)). Cells were cultured in 48-well plates for tissue culture and washed with cold Ham's F12 medium containing 0.2% gelatin (Sigma-Aldrich). 200 fmol of ^125I-bFGF and 1-100 nmol of acetyl decapeptide were dissolved in 200 μl of buffer and incubated with cells for 2 hr. Following the collection of cells by centrifugation, the cell membranes were isolated using 0.1% Triton X-100 and the radioactivity of ^125I-bFGF bound to receptors on cell membrane was determined using a gamma scintillation counter (Packard, U.S.A) (FIG. 3).
# NIH-3T3 cell = experiment: stability in 50 mM Tris-HCl at 37° C., residual activity by MTT assay; assay type: physicochemical; conditions: 50 mM Tris-HCl pH 8.0, 37° C., days 0-100, relative to day 0, FIG. 5
# Protocol: To evaluate stability of the purified acetyl decapeptide of Example 10, the decapeptide and acetyl decapeptide were dissolved in 50 mM Tris-HCl (pH 8.0) to a concentration of 10 μg/ml. A recombinant bFGF produced E. coli (Sigma-Aldrich) was prepared as a control in the same buffer to a concentration of 1 μg/ml. The prepared solutions were introduced into glass vials and kept to stand at 37° C. Afterwards, the solutions were taken on days 0, 1, 10, 25, 50, 75 and 100 and subjected to MTT assay (Scudiero, D. A., et al. Cancer Res. 48:4827-4833 (1988)) using NIH-3T3 cell (Korean Cell Line Bank) to determine residual activities of peptides and bFGF (FIG. 5). The results were given as relative values to the activity (100%) of sample taken on day 0.
# HaCaT keratinocytes = experiment: SRB colorimetric assay of HaCaT keratinocyte growth; assay type: cell-based, human; conditions: 10 ng/ml or 1,000 ng/ml, 72 hr, FIGS. 6 and 7
# Protocol: To analyze effects of peptides of this invention on proliferation of keratinocytes, SRB (Sulforhodamine B) calorimetric assay was carried out using HaCaT kerationcyte according to Rizzino et al method (Rizzino, et al. Cancer Res., 48:4266 (1988)). HaCaT ketatinocytes (The Korean Cell Line Bank) were cultured in 250 ml-flasks containing EMEM (Eagle's minimal essential media, Gibco, U.S.A.) supplemented with […] (fetal bovine serum). HaCaT ketatinocytes cultured were treated with 0.25% trypsin solution to detach cells from the bottom of culture flasks and centrifuged to collect cell pellets. Cells were resuspended in EMEM not containing FBS, its aliquot (4×10^3) cells was added to each well of 96-well plates and cultured under 7% CO2 for 24 hr at 37° C. After 24-hr culture, the medium was changed with a fresh medium not containing serum and cells were incubated with bFGF or the acetyl-decapeptide of Example 10 (10 ng/ml or 1,000 ng/ml) dissolved in 10% DMSO for 72 hr under the same conditions as described above. After removing supernatants, cells were washed once using PBS (phosphate buffered saline) and incubated with SRB solution (Sigma-Aldrich). Cells were washed with PBS and observed under a microscope to find cell viability. In addition, absorbance at 590 nm was measured to analyze cell proliferation (FIG. 6). […]
# procollagen = procollagen level in HaCaT cells (Procollagen ELISA kit); assay type: cell-based, human; conditions: 1 μg/ml, FIG. 8
# Protocol: as §1
molecule,measurement,setting,value
"C[C@]12CCC(=O)C[C@@H]1CC[C@@H]1[C@@H]2CC[C@]2(C)[C@@H](O)CC[C@@H]12 [DHT, dihydrotestosterone]",hair growth,Balb C mice,hair growth was barely observed
Ac-YRSRKYTSWY-OH [acetyl decapeptide],level of hyaluronic acid,hyaluronic acid,induce the elevation of levels of laminin and hyaluronic acid
same,[3H]-thymidine incorporation into fibroblasts,3T3 fibroblast,promotes thymidine incorporation into fibroblasts in a dose-dependent fashion
same,level of laminin,laminin,induce the elevation of levels of laminin and hyaluronic acid
same,binding to bFGF receptor in competition with 125I-bFGF,"[1]; 200 fmol 125I-bFGF, 1-100 nmol peptide, 2 hr",binds to bFGF receptor in a competitive manner with bFGF
same,binding potency to bFGF receptor,[1],higher binding potency
same,residual activity over time (stability),NIH-3T3 cell,excellent stability
same,cell viability / proliferation of HaCaT keratinocytes,HaCaT keratinocytes,much higher cell viability than control
same,level of procollagen in cells,procollagen,increased in a time-dependent manner
"decapeptide: unprotected bFGF-derived decapeptide, presumably the amino acid sequence of SEQ ID NO:1 (YRSRKYTSWY) (peptide having functions and actions of basic fibroblast growth factor)",residual activity over time (stability),NIH-3T3 cell,not to be decreased over time
"recombinant bFGF: recombinant bFGF produced E. coli (Sigma-Aldrich), prepared as a control",residual activity over time (stability),NIH-3T3 cell,sharply decreased with the lapse of time
